Test system: 843126-344-R-J1-PDC complex spheroid viability
Experiment: Anticancer human tumor 843126-344-R-J1-PDC patient-derived melanoma cell line growth inhibition [POLQ]
Conditions: for IC50: curve of first compound; for viability, T/C: stronger effect = lower value
Summary of the method: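 Growth inhibition in 3D: complex spheroids (tumor PDC, HUVEC, MSC) treated with POLQ inhibitor combinations; where Cmax unknown, highest tested concentration 10 microM, except SN-38 at 1 microM.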
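Throughout, for viability, T/C: spheroids exposed to drugs for seven days before readout.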

Structure (SMILES): CC(=O)O[C@H]1C(=O)[C@@]2(C)[C@H]([C@H](OC(=O)c3ccccc3)[C@]3(O)C[C@H](OC(=O)[C@H](O)[C@@H](NC(=O)c4ccccc4)c4ccccc4)C(C)=C1C3(C)C)[C@]1(OC(C)=O)CO[C@@H]1C[C@@H]2O + COC1C(OC(N)=O)C(O)C(Oc2ccc3c(O)c(NC(=O)c4ccc(O)c(CC=C(C)C)c4)c(=O)oc3c2C)OC1(C)C
- IC50 (second compound 0.0316 µM): > 3 µM
- IC50 (second compound 0.1 µM): > 3 µM
- IC50 (second compound 0.316 µM): > 3 µM
- IC50 (second compound 1 µM): > 3 µM
- IC50 (second compound 3.16 µM): > 3 µM
- IC50 (second compound 10 µM): > 3 µM
- viability, T/C (second compound 0.0316 µM, first compound 0.00949 µM): 55.4%
- viability, T/C (second compound 0.0316 µM, first compound 0.03 µM): 70%
- viability, T/C (second compound 0.0316 µM, first compound 0.0949 µM): 56%
- viability, T/C (second compound 0.0316 µM, first compound 0.3 µM): 69.8%
- viability, T/C (second compound 0.0316 µM, first compound 0.949 µM): 61.2%
- viability, T/C (second compound 0.0316 µM, first compound 3 µM): 68.9%
- viability, T/C (second compound 0.1 µM, first compound 0.00949 µM): 63.9%
- viability, T/C (second compound 0.1 µM, first compound 0.03 µM): 60.9%
- viability, T/C (second compound 0.1 µM, first compound 0.0949 µM): 49.1%
- viability, T/C (second compound 0.1 µM, first compound 0.3 µM): 55.3%
- viability, T/C (second compound 0.1 µM, first compound 0.949 µM): 55.5%
- viability, T/C (second compound 0.1 µM, first compound 3 µM): 57.5%
- viability, T/C (second compound 0.316 µM, first compound 0.00949 µM): 55.6%
- viability, T/C (second compound 0.316 µM, first compound 0.03 µM): 64.6%
- viability, T/C (second compound 0.316 µM, first compound 0.0949 µM): 65.5%
- viability, T/C (second compound 0.316 µM, first compound 0.3 µM): 57.1%
- viability, T/C (second compound 0.316 µM, first compound 0.949 µM): 55.7%
- viability, T/C (second compound 0.316 µM, first compound 3 µM): 61.1%
- viability, T/C (second compound 1 µM, first compound 0.00949 µM): 60.2%
- viability, T/C (second compound 1 µM, first compound 0.03 µM): 59.8%
- viability, T/C (second compound 1 µM, first compound 0.0949 µM): 61.6%
- viability, T/C (second compound 1 µM, first compound 0.3 µM): 60.4%
- viability, T/C (second compound 1 µM, first compound 0.949 µM): 52.5%
- viability, T/C (second compound 1 µM, first compound 3 µM): 52.1%
- viability, T/C (second compound 3.16 µM, first compound 0.00949 µM): 63.6%
- viability, T/C (second compound 3.16 µM, first compound 0.03 µM): 62.2%
- viability, T/C (second compound 3.16 µM, first compound 0.0949 µM): 53.8%
- viability, T/C (second compound 3.16 µM, first compound 0.3 µM): 57.2%
- viability, T/C (second compound 3.16 µM, first compound 0.949 µM): 60.7%
- viability, T/C (second compound 3.16 µM, first compound 3 µM): 50.9%
- viability, T/C (second compound 10 µM, first compound 0.00949 µM): 65.4%
- viability, T/C (second compound 10 µM, first compound 0.03 µM): 55.8%
- viability, T/C (second compound 10 µM, first compound 0.0949 µM): 52.9%
- viability, T/C (second compound 10 µM, first compound 0.3 µM): 54.6%
- viability, T/C (second compound 10 µM, first compound 0.949 µM): 66.1%
- viability, T/C (second compound 10 µM, first compound 3 µM): 57.1%

Structure (SMILES): CNCc1ccc(-c2[nH]c3cc(F)cc4c3c2CCNC4=O)cc1 + Nc1ccc(C#CCN(C(=O)Cc2ncc(C(F)(F)F)cc2C(F)(F)F)c2ccc(F)cc2)nn1
- IC50 (second compound 0.0316 µM): > 10 µM
- IC50 (second compound 0.1 µM): > 10 µM
- IC50 (second compound 0.316 µM): > 10 µM
- IC50 (second compound 1 µM): > 10 µM
- IC50 (second compound 3.16 µM): > 10 µM
- IC50 (second compound 10 µM): > 10 µM
- viability, T/C (second compound 0.0316 µM, first compound 0.0316 µM): 104%
- viability, T/C (second compound 0.0316 µM, first compound 0.1 µM): 92.1%
- viability, T/C (second compound 0.0316 µM, first compound 0.316 µM): 100%
- viability, T/C (second compound 0.0316 µM, first compound 1 µM): 108%
- viability, T/C (second compound 0.0316 µM, first compound 3.16 µM): 98.5%
- viability, T/C (second compound 0.0316 µM, first compound 10 µM): 83.4%
- viability, T/C (second compound 0.1 µM, first compound 0.0316 µM): 96.4%
- viability, T/C (second compound 0.1 µM, first compound 0.1 µM): 103%
- viability, T/C (second compound 0.1 µM, first compound 0.316 µM): 101%
- viability, T/C (second compound 0.1 µM, first compound 1 µM): 95%
- viability, T/C (second compound 0.1 µM, first compound 3.16 µM): 94.3%
- viability, T/C (second compound 0.1 µM, first compound 10 µM): 88.5%
- viability, T/C (second compound 0.316 µM, first compound 0.0316 µM): 95.8%
- viability, T/C (second compound 0.316 µM, first compound 0.1 µM): 105%
- viability, T/C (second compound 0.316 µM, first compound 0.316 µM): 97.3%
- viability, T/C (second compound 0.316 µM, first compound 1 µM): 103%
- viability, T/C (second compound 0.316 µM, first compound 3.16 µM): 94.4%
- viability, T/C (second compound 0.316 µM, first compound 10 µM): 84.3%
- viability, T/C (second compound 1 µM, first compound 0.0316 µM): 103%
- viability, T/C (second compound 1 µM, first compound 0.1 µM): 103%
- viability, T/C (second compound 1 µM, first compound 0.316 µM): 95.9%
- viability, T/C (second compound 1 µM, first compound 1 µM): 117%
- viability, T/C (second compound 1 µM, first compound 3.16 µM): 102%
- viability, T/C (second compound 1 µM, first compound 10 µM): 86.3%
- viability, T/C (second compound 3.16 µM, first compound 0.0316 µM): 92.6%
- viability, T/C (second compound 3.16 µM, first compound 0.1 µM): 86.3%
- viability, T/C (second compound 3.16 µM, first compound 0.316 µM): 95.2%
- viability, T/C (second compound 3.16 µM, first compound 1 µM): 83.6%
- viability, T/C (second compound 3.16 µM, first compound 3.16 µM): 98.2%
- viability, T/C (second compound 3.16 µM, first compound 10 µM): 90.9%
- viability, T/C (second compound 10 µM, first compound 0.0316 µM): 91.3%
- viability, T/C (second compound 10 µM, first compound 0.1 µM): 89.1%
- viability, T/C (second compound 10 µM, first compound 0.316 µM): 91.9%
- viability, T/C (second compound 10 µM, first compound 1 µM): 92.9%
- viability, T/C (second compound 10 µM, first compound 3.16 µM): 91.5%
- viability, T/C (second compound 10 µM, first compound 10 µM): 85.9%

Source: PubChem BioAssay AID1963837 (Molecular Pharmacology Branch, DTP, NCI, 2024)
